Results on twelve compounds are retold here after patent publication US12421254B2, “KRAS modulators and uses thereof” (Quanta Therapeutics, Inc., priority 2023, dated 2025).

Some results are limits rather than exact numbers.

Experiment [1] deals with GST-tagged KRAS-G12D (2-169) (Homo sapiens, UniProt P01116, G12D). Briefly: Nucleotide exchange assay (NEA), SOS-mediated, HTRF, KRAS G12D. The format is biochemical. To be noted: Table 4; IC50 extracted at 30 min; 20 nM SOScat; read-out: NEA G12D IC50. The essentials:
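Compound preincubated 1 h at RT with 0.25 nM GST-KRAS-G12D (2-169) and anti-GST Tb donor, then 20 nM SOS1cat (564-1049) and 150 nM GTP-DY-647P1 added; pH 7.3 HEPES buffer with MgCl2 and DTT. HTRF monitored at RT; % inhibition versus DMSO and no-SOS blank, 4-parameter IC50 taken at 30 min.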

Experiment [2] concerns the target GST-tagged KRAS-G12V (2-169) (Homo sapiens, UniProt P01116, G12V). Nature of the experiment: Nucleotide exchange assay (NEA), SOS-mediated, HTRF, KRAS G12V. The format is biochemical. To be noted: Table 4; IC50 extracted at 90 min; 80 nM SOS. An outline of the steps:
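GST-KRAS-G12V (2-169), 0.25 nM, pre-incubated 1 h at RT with compound, then SOS1cat (564-1049) 80 nM and GTP-DY-647P1 150 nM added in HEPES pH 7.3 buffer with MgCl2 and DTT. HTRF via anti-GST Tb cryptate read over 90 min; IC50 from 4-parameter fit at 90 min, blanked to no-SOS reactions.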

The subject of experiment [3] is phospho-ERK in GP2D (KRAS-G12D) cells. Nature of the experiment: pERK In Cell Western (ICW) assay (Method B), GP2D. The format is cell-based. To be noted: GP2d, 3 h, Table 4. The procedure:
pERK ICW is a high throughput screening assay to evaluate the cellular potency of mutant KRAS small molecule inhibitors. KRAS mutant cell lines AGS, GP2D (KRAS-G12D) as well as SW620 (KRAS-G12V) were purchased from ATCC and maintained respectively in RPMI/DMEM/RPMI medium supplemented with 10% fetal bovine serum.
Cells grown in exponential phase were trypsinized, resuspended in fresh media, and viable cells were counted using a cell counter with Trypan Blue (BioRad TC20). Cells were seeded into 384-well plate (Greiner 781091) at density of 5,000 cells/well for AGS and 10,000 cells/well for GP2D/SW620 and allowed to grow overnight in a 37° C. CO2 incubator. The next day, compounds were dispensed into wells with a ½ log, 9-point serial dilution using a Tecan D300e dispenser and incubated for 3 hours in a 37° C. CO2 incubator. Cells were then fixed with paraformaldehyde (Electron Microscopy Sciences, 15710, 4% final concentration) for 30 min, permeabilized with wash buffer (1×PBS+0.1% Triton X-100) for 30 min and blocked with Odyssey blocking buffer (Li—COR 927-70001) for 1 hour, all at room temperature (RT). Phospho-ERK antibody (CST 4370L) was diluted 1:500 in Odyssey T20 (PBS) antibody diluent (Li—COR 927-75001) and incubated with cells overnight at 4° C. The next day, plates were washed 5× with wash buffer, incubated with IRDye 800 CW, Goat anti-Rabbit secondary antibody (Li—COR 926-32211, 1:800) and DRAQ5 (CST 4084L, 1:5,000) diluted in Odyssey T20 (PBS) antibody diluent for 1 hour, washed 5×, and imaged on an Odyssey CLx imaging system.
For data analysis, signal intensities from 800 (phosphor-ERK) and 700 (DRAQ5) channels were extracted, and phospho-ERK signals were normalized to DRAQ5 signals for each well and percent of blank control values were computed. Data were then imported into Graphpad Prism to compute half-maximal inhibitory concentrations (IC50) using a 4-parameter variable slope model. Z-factor for each plate was computed from signals derived from wells treated with either DMSO or 5 μM of control compound. AGS pERK ICW (Method B) IC50 (uM) values of selected compounds are depicted in Table 2 with compounds having a value ≥0.001 uM to 0.01 uM as ++++; ≥0.01 uM to 0.1 uM as +++; ≥0.1 uM to 1 uM as ++; ≥1 uM to 10 uM as + and ≥10 uM as NA.

Experiment [4] relates to phospho-ERK in SW620 (KRAS-G12V) cells. Nature of the experiment: pERK In Cell Western (ICW) assay (Method B), SW620. The format is cell-based. The essentials:
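Here IC50 reflects phospho-ERK suppression after 3 h compound exposure at 37 °C in cells grown in 10% FBS medium. Signal is normalized to DRAQ5 DNA stain and to blank control wells.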

[5] abbreviates: Homo sapiens, SW-620, 3 h, Table 4.

Chain of GST-tagged KRAS-G12D (2-169) (P01116 2-169 isoform P01116-2 G12D): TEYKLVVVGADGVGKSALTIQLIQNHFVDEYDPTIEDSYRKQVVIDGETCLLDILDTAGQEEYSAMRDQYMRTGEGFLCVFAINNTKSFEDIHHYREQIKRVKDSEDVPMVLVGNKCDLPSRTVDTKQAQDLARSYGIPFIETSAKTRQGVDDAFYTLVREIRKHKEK
Chain of GST-tagged KRAS-G12V (2-169) (P01116 2-169 isoform P01116-2 G12V): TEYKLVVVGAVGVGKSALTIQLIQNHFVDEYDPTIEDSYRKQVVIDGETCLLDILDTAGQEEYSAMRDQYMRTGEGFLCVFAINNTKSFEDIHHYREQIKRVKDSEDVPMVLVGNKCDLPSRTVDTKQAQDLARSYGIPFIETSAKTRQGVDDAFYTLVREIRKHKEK

Regarding `N#Cc1c(N)sc2c1C1(CC2)CN(c2nc(OC[C@@]34CCCN3C[C@H](F)C4)nc(N3CCOCC(C#N)C3)n2)C1` (single isomer, unassigned) [Compound 91A, (6*)-4-[4-(2-amino-3-cyano-spiro[5,6-dihydrocyclopenta[b]thiophene-4,3′-azetidine]-1′-yl)-6-[[(2R,8S)-2-fluoro-1,2,3,5,6,7-hexahydropyrrolizin-8-yl]methoxy]-1,3,5-triazin-2-yl]-1,4-oxazepane-6-carbonitrile], the IC50 is below 10 nM in experiment [1]; below 10 nM in experiment [2]; 100 to 1000 nM in experiment [3]; 100 to 1000 nM in experiment [4] (Table 4, 3 hours).
For the compound `C[C@@]1(O)C[C@@H](O)CN(c2nc(OC[C@@]34CCCN3C[C@H](F)C4)nc(N3CC4(CCc5sc(N)c(C#N)c54)C3)n2)C1` [Compound 47, 2-amino-1′-[4-[(3R,5R)-3,5-dihydroxy-3-methyl-1-piperidyl]-6-[[(2R,8S)-2-fluoro-1,2,3,5,6,7-hexahydropyrrolizin-8-yl]methoxy]-1,3,5-triazin-2-yl]spiro[5,6-dihydrocyclopenta[b]thiophene-4,3′-azetidine]-3-carbonitrile], the IC50 in experiment [1] is below 10 nM; in experiment [2], below 10 nM; in experiment [3], 100 to 1000 nM; in experiment [4] (setting [5]), at least 20000 nM.
Turning to `N#CCC1(O)CCCN(c2nc(OC[C@@]34CCCN3C[C@H](F)C4)nc(N3CC4(CCc5sc(N)c(C#N)c54)C3)n2)C1` (stereo partly drawn) [Compound 79, 2-amino-1′-[4-[3-(cyanomethyl)-3-hydroxy-1-piperidyl]-6-[[(2R,8S)-2-fluoro-1,2,3,5,6,7-hexahydropyrrolizin-8-yl]methoxy]-1,3,5-triazin-2-yl]spiro[5,6-dihydrocyclopenta[b]thiophene-4,3′-azetidine]-3-carbonitrile; 2,2,2-trifluoroacetic acid], the IC50 in experiment [1] was 10 to 100 nM; in experiment [2] it was below 10 nM; in experiment [3], 100 to 1000 nM; in experiment [4] (setting [5]) it was 1000 to 20000 nM.
In the same order, the values of `N#CCC1C=C(F)CN(c2nc(OCC3(CN4CCOCC4)CC3)nc(N3CC4(CCc5sc(N)c(C#N)c54)C3)n2)C1` (stereo not drawn) [Compound 65, 2-amino-1′-[4-[3-(cyanomethyl)-5-fluoro-3,6-dihydro-2H-pyridin-1-yl]-6-[[1-(morpholinomethyl)cyclopropyl]methoxy]-1,3,5-triazin-2-yl]spiro[5,6-dihydrocyclopenta[b]thiophene-4,3′-azetidine]-3-carbonitrile] are 100 to 1000 nM, 10 to 100 nM, 1000 to 20000 nM and 1000 to 20000 nM.
In the same order, the values of `N#Cc1c(N)sc2c1C1(CC2)CN(c2nc(OCC3(CN4CCOCC4)CC3)nc(N3CCCC(C#N)C3)n2)C1` (stereo not drawn) [Compound 56, 2-amino-1′-[4-(3-cyano-1-piperidyl)-6-[[1-(morpholinomethyl)cyclopropyl]methoxy]-1,3,5-triazin-2-yl]spiro[5,6-dihydrocyclopenta[b]thiophene-4,3′-azetidine]-3-carbonitrile] are 100 to 1000 nM, 10 to 100 nM, 100 to 1000 nM and 1000 to 20000 nM.
Regarding `N#Cc1c(N)sc2c1C1(CN(c3nc(OC[C@@]45CCCN4C[C@H](F)C5)nc(Oc4ccnnc4)n3)C1)SC2` [Compound 169, 2-amino-1′-[4-[[(2R,8S)-2-fluoro-1,2,3,5,6,7-hexahydropyrrolizin-8-yl]methoxy]-6-pyridazin-4-yloxy-1,3,5-triazin-2-yl]spiro[6H-thieno[2,3-c]thiophene-4,3′-azetidine]-3-carbonitrile], the IC50 in experiment [1] was in the range of 1000 to 20000 nM; in experiment [2] it was 100 to 1000 nM; in experiment [3], 1000 to 20000 nM; in experiment [4] (setting [5]) it was 1000 to 20000 nM.
With `N#Cc1c(N)sc2c1C1(CC2)CN(c2nc(OC[C@@]34CCCN3C[C@H](F)C4)nc(N(CCO)Cc3ccc[nH]c3=O)n2)C1` [Compound 136, 2-amino-1′-[4-[[(2R,8S)-2-fluoro-1,2,3,5,6,7-hexahydropyrrolizin-8-yl]methoxy]-6-[2-hydroxyethyl-[(2-oxo-1H-pyridin-3-yl)methyl]amino]-1,3,5-triazin-2-yl]spiro[5,6-dihydrocyclopenta[b]thiophene-4,3′-azetidine]-3-carbonitrile], the IC50 in experiment [1] was in the range of 100 to 1000 nM; in experiment [2], 100 to 1000 nM; in experiment [3] it was 1000 to 20000 nM; in experiment [4] (setting [5]), 1000 to 20000 nM.
As to `CN(C)CC1(COc2nc(N3CC4(C3)SCc3sc(N)c(C#N)c34)nc(N3C[C@@H](F)C[C@@](C)(O)C3)n2)CC1(F)F` (stereo partly drawn) [Compound 153, 2-amino-1′-[4-[[1-[(dimethylamino)methyl]-2,2-difluoro-cyclopropyl]methoxy]-6-[(3R,5S)-5-fluoro-3-hydroxy-3-methyl-1-piperidyl]-1,3,5-triazin-2-yl]spiro[6H-thieno[3,4-b]thiophene-4,3′-azetidine]-3-carbonitrile], the 50% inhibitory concentration (IC50) in experiment [1] is below 10 nM; in experiment [2], below 10 nM; in experiment [3] it was below 10 nM; in experiment [4] (setting [5]), 10 to 100 nM.
`CCN(c1nc(OCC23CCCN2CCC3)nc(N2CC3(C2)SCc2sc(N)c(C#N)c23)n1)[C@H](C)c1cccnc1N` [Compound 206, (R)-2′-amino-1-(4-((1-(2-aminopyridin-3-yl)ethyl)(ethyl)amino)-6-((tetrahydro-1H-pyrrolizin-7a(5H)-yl)methoxy)-1,3,5-triazin-2-yl)-6′H-spiro[azetidine-3,4′-thieno[3,4-b]thiophene]-3′-carbonitrile]: the IC50 in experiment [1] was below 10 nM; in experiment [2], below 10 nM; in experiment [3], below 10 nM; in experiment [4] (setting [5]), 10 to 100 nM.
With `CCN(c1nc(OC[C@@H]2C[C@@H](F)CN2)nc(N2CC3(C2)SCc2sc(N)c(C#N)c23)n1)[C@H](C)c1cccnc1N` [Compound 209, 2-amino-1′-[4-[[(1R)-1-(2-amino-3-pyridyl)ethyl]-ethyl-amino]-6-[[(2S,4R)-4-fluoropyrrolidin-2-yl]methoxy]-1,3,5-triazin-2-yl]spiro[6H-thieno[3,4-b]thiophene-4,3′-azetidine]-3-carbonitrile], the IC50 was below 10 nM in experiment [1], below 10 nM in experiment [2], below 10 nM in experiment [3] and 10 to 100 nM in experiment [4] (setting [5]).
`CC(c1nccnc1N)N(C)c1nc(OC[C@@]23CCCN2C[C@H](F)C3)nc(N2CC3(C2)SCc2sc(N)c(C#N)c23)n1` (stereo partly drawn) [Compound 134, 2-amino-1′-[4-[1-(3-aminopyrazin-2-yl)ethyl-methyl-amino]-6-[[(2R,8S)-2-fluoro-1,2,3,5,6,7-hexahydropyrrolizin-8-yl]methoxy]-1,3,5-triazin-2-yl]spiro[6H-thieno[3,4-b]thiophene-4,3′-azetidine]-3-carbonitrile]: the half-inhibitory concentration (IC50) in experiment [1] is below 10 nM; in experiment [2], below 10 nM; in experiment [3] it was 10 to 100 nM; in experiment [4] (setting [5]), below 10 nM.
For the compound `N#Cc1c(N)sc2c1C1(CC2)CN(c2nc(OC[C@@]34CCCN3C[C@H](F)C4)nc(N3CCCC4(CC(=O)N4)C3)n2)C1` (stereo partly drawn) [Compound 130, 2-amino-1′-[4-[[(2R,8S)-2-fluoro-1,2,3,5,6,7-hexahydropyrrolizin-8-yl]methoxy]-6-(2-oxo-1,8-diazaspiro[3.5]nonan-8-yl)-1,3,5-triazin-2-yl]spiro[5,6-dihydrocyclopenta[b]thiophene-4,3′-azetidine]-3-carbonitrile], the IC50 is below 10 nM in experiment [1], below 10 nM in experiment [2], 100 to 1000 nM in experiment [3] and 1000 to 20000 nM in experiment [4] (setting [5]).
